Measured values as given in ChEMBL document CHEMBL1145244, “In vitro advanced antimycobacterial screening of isoniazid-related hydrazones, hydrazides and cyanoboranes: part 14” (2005).
In brackets after ≈: the same amount, converted by molar mass.

Key:
[1] = tested on: Mycobacterium tuberculosis; assay: In vitro antimycobacterial activity against Mycobacterium tuberculosis H37Rv in broth cluture infected with macrophages; format: functional
Vero = assay: Selective index of IC50 of Vero Cells to that of MIC of Mycobacterium tuberculosis H37Rv; format: functional, Chlorocebus sabaeus
[2] = tested on: Mycobacterium tuberculosis; assay: Ratio of effective concentration required for the reduction in colony forming units (CFU) at seven days compared to drug free controls to that of MIC against Mycobacterium tuberculosis Erdman; format: functional
[3] = tested on: Mycobacterium tuberculosis; assay: In vitro antimycobacterial activity against Mycobacterium tuberculosis Erdman in broth cluture infected with macrophages; format: functional
[4] = tested on: Mycobacterium tuberculosis; assay: Effective concentration required for the reduction in colony forming units (CFU) at seven days compared to drug free controls; format: functional; conditions: 168 h
[5] = tested on: Mycobacterium tuberculosis; assay: In vitro antimycobacterial activity against Mycobacterium tuberculosis H37Rv in broth cluture infected with macrophages; Range 0.025-0.05; format: functional

| Structure (SMILES) | MBC [1] [µg/mL] | MIC [1] [µg/mL] | Selective index (Vero) | Ratio [2] | MIC [3] [µg/mL] | EC90 [4] [µg/mL] | EC99 [4] [µg/mL] | MIC [5] [µg/mL] |
| --- | --- | --- | --- | --- | --- | --- | --- | --- |
| O=C(N/N=C/c1ccc(C(F)(F)F)cc1)c1ccncc1 | 0.2 (≈ 0.682 µM) | 0.05 (≈ 0.171 µM) | >1250 | 0.4 | 0.1 (≈ 0.341 µM) | 0.04 (≈ 0.136 µM) | 0.09 | – |
| O=C(N/N=C/c1ccccc1F)c1ccncc1 | – | 0.05 (≈ 0.206 µM) | 168 | 1 | 0.05 (≈ 0.206 µM) | 0.05 (≈ 0.206 µM) | 0.14 | – |
| C/C(=N\NC(=O)c1ccncc1)C(F)(F)F | 0.2 (≈ 0.865 µM) | 0.05 (≈ 0.216 µM) | 1160 | 0.46 | 0.1 (≈ 0.433 µM) | 0.046 (≈ 0.199 µM) | 0.41 | – |
| C/C(=N\NC(=O)c1ccncc1)c1cccc(/C(C)=N/NC(=O)c2ccncc2)n1 | 12.5 (≈ 31.1 µM) | ≤ 0.2 | 320.5 | 0.23 | 0.39 (≈ 0.972 µM) | 0.09 (≈ 0.224 µM) | 0.29 | – |
| O=C(N/N=C/C(F)(F)F)c1ccncc1 | – | 0.05 (≈ 0.23 µM) | 302 | – | – | 0.05 (≈ 0.23 µM) | 0.25 | – |
| C/C=N/NC(=O)c1ccncc1 | 0.05 (≈ 0.306 µM) | 0.025 (≈ 0.153 µM) | >2500 | 1.2 | 0.025 (≈ 0.153 µM) | 0.03 (≈ 0.184 µM) | 0.08 | – |
| C/C(=N\NC(=O)c1ccncc1)c1ccc(F)cc1 | – | 1.6 (≈ 6.22 µM) | >78 | 1.18 | 1.56 (≈ 6.06 µM) | 1.84 (≈ 7.15 µM) | 5.25 | – |
| N#CC[n+]1ccc(C(=O)NNCc2ccccc2)cc1 | 1.56 | 0.8 | – | 0.0093 | 12.5 | 0.116 | 1.49 | – |
| CC(NNC(=O)c1ccncc1)c1ccccc1F (stereo not drawn) | – | 1.6 (≈ 6.17 µM) | 78.12 | 0.81 | 3.13 (≈ 12.1 µM) | 2.54 (≈ 9.8 µM) | 6.06 | – |
| N#CC[n+]1ccc(C(=O)NNCC(F)(F)F)cc1 | 3.13 | 0.78 | 122 | 0.091 | 12.5 | 1.14 | 10.6 | – |
| NNC(=O)c1ccncc1 [ISONIAZID] | 0.1 (≈ 0.729 µM) | – | >20000 | – | – | 0.03 (≈ 0.219 µM) | 0.42 | 0.05 (≈ 0.365 µM) |
